Reference: US7842808B2, “Anti-migraine spirocycles” (Bristol-Myers Squibb Company, priority 2002, dated 2010)

Key:
[1] = target: T1, human CGRP receptor (SK-N-MC cells) (Homo sapiens, UniProt O60894+Q16602); assay: Schild analysis of CGRP stimulated cAMP production; format: cell-based; conditions: for slope: Schild plot slope
T1 construct: SK-N-MC cells that endogenously express the human CGRP receptor; endogenous in cells; host or cells: SK-N-MC cells
Procedure: Functional Antagonism. Antagonism of the compounds of invention was determined by measuring the formation of cyclic AMP (adenosine 3′5′-cyclic monophosphate) in SK-N-MC cells that endogenously express the human CGRP receptor. CGRP receptor complex is coupled with Gs protein and CGRP binding to this complex leads to the cyclic AMP production via Gs—dependent activation of an adenylate cyclase (Juaneda C et al., TiPS, 2000; 21:432-438; incorporated by reference herein). Consequently, CGRP receptor antagonists inhibit CGRP-induced cyclic AMP formation in SK-N-MC cells (Doods H et al., Br J Pharmacol, 2000; 129(3):420-423); incorporated by reference herein). For cyclic AMP measurements SK-N-MC cells were incubated with 0.3 nM CGRP alone or in the presence of various concentrations of the compounds of invention for 30 min at room temperature. Compounds of invention were pre-incubated with SK-N-MC cells for 15 min before the addition of CGRP to allow receptor occupancy (Edvinsson et al., Eur J Pharmacol, 2001, 415:39-44; incorporated by reference herein). Cyclic AMP was extracted using the lysis reagent and its concentration was determined by radioimmunoassay using RPA559 cAMP SPA Direct Screening Assay Kit (Amersham Pharmacia Biotech). IC50 values were calculated using Excel fit.
Schild Analysis. Schild analysis can be used to characterize the nature of antagonism of the compounds of invention. The dose response of CGRP stimulated cAMP production was generated either with CGRP alone, or in the presence of various concentrations of compounds of invention. The antagonist dose is plotted as X against the dose ratio (defined as IC50 of agonist with the presence of the compounds divided by the IC50 of the agonist alone) minus 1 as Y. Linear regression was then performed with both X and Y axis log-transformed. […] Kb is the dissociation constant of the antagonist.

[2] = system: CGRP-induced increase in laser Doppler facial blood flow; assay: Non-terminal laser Doppler facial blood flow model in non-human primate; format: in vivo, common marmoset (Callithrix jacchus); conditions: iv, CGRP 10 μg/kg
Source text: Overview. […] Non-human primates (e.g., marmosets) are the only animals known to have human-like CGRP receptor pharmacology conferred by the presence of the specific amino acid residue (Trp74) in their RAMP1 sequence which is responsible for the phenotype of the human receptor (Mallee et al. J Biol Chem 2002 277:14294). […] Peptide and small-molecule CGRP-receptor antagonists were used to validate the non-human primate model.
Animals. Adult male and female common marmosets (Callithrix jacchus) purchased from Harlan and weighing 350-550 g served as subjects. Other mammals endogenously expressing RAMP1 having Trp 74 or transgenic mammals with humanized RAMP1 having Trp 74 can also be employed in A compound described herein.
Anesthesia & Surgical Preparation. Animals are anesthetized by isoflurane inhalation in an induction chamber (4-5% rapid induction, maintained with 1-2.5%; Solomon et al., 1999). Anesthesia is maintained by delivering a constant supply of air:oxygen (50:50) and isoflurane via face mask, or by intubation and ventilation (with blood gas monitoring). Body temperature is maintained at 38±0.5° C. by placement on an automated temperature controlled surface with rectal probe. A small area of fur (approx. 1.5 cm square) is removed from one or both sides of the face by application of a depilatory cream and/or shaving. Surgical areas are clipped and prepared with betadine. An i.v. line is placed in any accessible vein for the administration of test compounds and CGRP-receptor agonist and, if needed, withdrawal of blood samples (max 2.5 ml, 10%) for blood gas monitoring and content analysis. A solution of 5% dextrose is administered i.v. in order to maintain blood sugar levels. Anesthesia depth is monitored by measuring blood pressure and heart rate using a non-invasive arm cuff method and a pulse oximeter, respectively. Guanethidine 5-10 mg/kg i.v., supplemented with 5 mg/kg i.v. as needed, may be given to stabilize the peak flux in facial blood flow seen with repeated stimulation-induced changes in blood flow (Escott et al., 1999; incorporated by reference herein). Microvascular blood flow is monitored by attaching a self adhesive laser Doppler flow probe to the facial skin.
Compound Administration Test compounds may be administered i.v. (0.01-5 ml/kg), i.m. (0.01-0.5 ml/kg), s.c. (0.01-5 ml/kg) or p.o. (0.1-10 ml/kg) (Diehl et al., 2001; incorporated by reference herein). CGRP-receptor agonists may be delivered i.v. (0.01-5 ml/kg), i.d. (10-100 μl/site) or s.c. (10-100 μl/site).

[3] = target: T1, human CGRP receptor (SK-N-MC cells); assay: Cyclic AMP Assay, functional antagonism of CGRP-induced cyclic AMP formation; format: cell-based; conditions: SK-N-MC cells, 0.3 nM CGRP; read-out: cAMP Function IC50
How it was run: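 SK-N-MC cells, which endogenously express human CGRP receptor, stimulated with 0.3 nM CGRP with or without compound for 30 min at room temperature. Cellular cAMP extracted by lysis and quantified by SPA radioimmunoassay; IC50 from inhibition of CGRP-induced cAMP.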

T1 sequence (Q16602 23-461): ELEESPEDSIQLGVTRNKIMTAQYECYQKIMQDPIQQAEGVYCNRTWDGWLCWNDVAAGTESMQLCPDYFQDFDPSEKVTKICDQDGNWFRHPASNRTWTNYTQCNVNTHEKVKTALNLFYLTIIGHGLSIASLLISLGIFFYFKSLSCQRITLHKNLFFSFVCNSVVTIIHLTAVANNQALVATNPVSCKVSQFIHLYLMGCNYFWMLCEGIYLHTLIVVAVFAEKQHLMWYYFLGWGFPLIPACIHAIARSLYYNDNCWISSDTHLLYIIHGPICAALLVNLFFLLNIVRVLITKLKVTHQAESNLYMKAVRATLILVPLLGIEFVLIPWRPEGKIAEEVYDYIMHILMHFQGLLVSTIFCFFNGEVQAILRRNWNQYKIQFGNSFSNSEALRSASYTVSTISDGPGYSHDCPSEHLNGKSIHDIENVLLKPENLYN
T1 sequence (O60894 27-148): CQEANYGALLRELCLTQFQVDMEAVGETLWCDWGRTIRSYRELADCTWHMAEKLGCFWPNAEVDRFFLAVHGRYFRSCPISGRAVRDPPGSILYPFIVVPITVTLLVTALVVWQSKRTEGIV

Row | slope [1] | IC50 [3] | Kb ([1]; Schild analysis, dissociation constant of the antagonist, read-out: Kb) | SMILES | % Inhibition of CGRP-induced increase in laser Doppler facial blood flow ([2]; 0.03 mg/kg) | % Inhibition of CGRP-induced increase in laser Doppler facial blood flow ([2]; 0.1 mg/kg)
1 | 1.3 | < 10 nM |  | Cc1cc(CC(NC(=O)N2CCC(N3Cc4ccccc4NC3=O)CC2)C(=O)N2CCC(N3CCCCC3)CC2)cc2cn[nH]c12 (racemic) [Example 16, (±)-4-(2-Oxo-1,4-dihydro-2H-quinazolin-3-yl)-piperidine-1-carboxylic acid[2-[1,4′]bipiperidinyl-1′-yl-1-(7-methyl-1H-indazol-5-ylmethyl)-2-oxo-ethyl]-amide] | Y (50%<Y≦75%) | 
2 | 1 | < 10 nM | 0.016 nM | Cc1cc(CC(CC(=O)N2CCC(N3Cc4ccccc4NC3=O)CC2)C(=O)N2CCC(N3CCCCC3)CC2)cc2cn[nH]c12 (racemic) [Example 69, (±)-1-[1,4′]Bipiperidinyl-1′-yl-2-(7-methyl-1H-indazol-5-ylmethyl)-4-[4-(2-oxo-1,4-dihydro-2H-quinazolin-3-yl)-piperidin-1-yl]-butane-1,4-dione] | Y (50%<Y≦75%) | Z (Z>75%)
